Assay results reported in article PMC9643456, “Matching amino acids membrane preference profile to improve activity of antimicrobial peptides” (Communications Biology, 2022).
Square brackets hold non-standard residues; d marks the D form. Peptide text beside a SMILES is read from it.

Tests used:
[1] = test system: MDR A. baumannii, MDR S. aureus or MDR K. pneumonia; experiment: In vivo activity, subcutaneously infected mice; design: species or system BALB/c mice
Protocol: Female BALB/c mice (8-week old; n = 10) were purchased from orientbio (Gyeonggido, Republic of Korea) and fed under standardized environmental conditions for 1 week to be used to estimate time-dependent mouse survival rates. After inducing neutropenia by intraperitoneal injection of cyclophosphamide (150 mg/kg; Sigma), MDR S. aureus (KCCM 40510), MDR A. baumannii (colistin-resistant strain) or MDR K. pneumonia (colistin-resistant strain, NCCP 16125) was diluted in PBS and subcutaneously injected into mice (S. aureus, 1.5 × 10^8 CFU/ml; A. baumannii, 1 × 10^8 CFU/ml; K. pneumonia, 1 × 10^9 CFU/ml). After bacterial infection, 100 μl of WCopW43 peptide dissolved in distilled water (10 mg/ml) were injected (50 mg/kg) into each infected site, and survival was monitored every 12 h for 7 days. For A. baumannii infection, mice were intraperitoneally injected with mucin ([…], 1% in PBS, 300 μl) to suppress macrophages, and A. baumannii cells were incubated with mucin (1% in PBS) for 3 h before subcutaneous injection of 2 × 10^8 CFU/ml (0.2% mucin in PBS)[71]–[74]. Survival rates were calculated using the formula: 100% × (number of surviving mice/ten mice). One day after WCopW43 (50 mg/kg) injection, four mice were randomly selected and sacrificed by CO2 inhalation. […] Homogenized samples were spread onto MH agar plates, and CFU values were determined after incubation overnight at 37 °C.

[2] = test system: MDR A. baumannii; experiment: Killing kinetics in the SEM sample; type: cell-based, Acinetobacter baumannii; settings: 2 × 10^8 cfu/ml, x1 MIC, PBS, after 4 hours
Protocol: FE-SEM was used to observe peptide-induced changes in bacterial morphology. MDR A. baumannii (ATCC BAA-1605) and MDR S. aureus (KCCM 40510) were cultured in CAMHB to log phase and washed in PBS. Bacteria and peptides were diluted in PBS, after which aliquots of bacteria (50 μl) and peptides (50 μl) were mixed to yield the following final concentrations: MDR A. baumannii or MDR S. aureus, 2 × 10^8 CFU/ml; WCopW29, 2.5 μM. Mixtures were deposited onto cover glass slips and incubated for 0 min, 15 min, 30 min, 1 h or 4 h. After incubation, the bacteria were fixed with paraformaldehyde (4%) and osmium tetroxide (1%) (Sigma, Darmstadt, Germany), washed with water, and freeze-dried overnight. Freeze-dried samples were Pt-coated and placed in an S-4700, EMAX System field emission scanning electron microscope (Hitachi, Tokyo, Japan). Bacterial morphologies were imaged and recorded on video at magnifications of 10,000× and 25,000×.
Antimicrobial kinetics for each peptide and each bacterial strain were assessed using FE-SEM. […] Each experiment was performed in triplicate.

Compound	Decrease of bacterial burden (CFU) ([1]; WCopW43 50 mg/kg s.c. 1 h after infection, tissue CFU one day after infection, vs PBS)	Survival compared with PBS-injected mice ([1]; WCopW43 50 mg/kg s.c., neutropenic BALB/c mice, n = 10, 7 days)	Loss of colony forming [2] [%]
CC[C@@H](C)[C@@H](NC(=O)[C@@H](Cc1c[nH]c2ccccc12)NC(=O)[C@@H](CCCNC(=N)N)NC(=O)[C@@H](CCCNC(=N)N)NC(=O)[C@H](N)CCCNC(=N)N)C(=O)N[C@H](Cc1c[nH]c2ccccc12)C(=O)N[C@@H](C(=O)N[C@@H](C(=O)N[C@H](Cc1c[nH]c2ccccc12)C(=O)N[C@H](CCCCN)C(N)=O)[C@H](C)CC)C(C)C [WCopW43] (H-[dR][dR][dR][dW][dI][dW][dV][dI][dW][dK]-NH2)	~ 90%	survived longer	–
CC[C@@H](C)[C@@H](NC(=O)[C@@H](Cc1c[nH]c2ccccc12)NC(=O)[C@H](NC(=O)[C@@H](CC(C)C)NC(=O)[C@H](N)Cc1c[nH]c2ccccc12)C(C)C)C(=O)N[C@H](Cc1c[nH]c2ccccc12)C(=O)N[C@H](CCCNC(=N)N)C(=O)N[C@H](CCCNC(=N)N)C(=O)N[C@H](CCCNC(=N)N)C(N)=O [WCopW29] (H-[dW][dL][dV][dW][dI][dW][dR][dR][dR]-NH2)	–	–	99
